Experimental data as given in patent US5470827A, “Method of producing iturin A and antifungal agent for profound mycosis” (Higeta Shoyu Co., Ltd., priority 1993, dated 1995).
Values after ≈ are worked out from the molar mass of the structure shown. *1 amine or outer side, *2 acyl side, *3 side chain or, on linkers, in order; H or OH if unused. Where a SMILES comes first, the peptide text is derived from it. [ ]: non-standard residue; d: D form. ξ: configuration not given here. ξβ3hGly(tridecyl) = CCCCCCCCCCCCCC(CC(=O)[*:2])N[*:1]; ξβ3hGly(undecyl) = CCCCCCCCCCCC(CC(=O)[*:2])N[*:1]; X2 = CC(C)CCCCCCCCC[C@H](CC(=O)[*:2])N[*:1]; X6 = CCC(C)CCCCCCCCCCC(CC(=O)[*:2])N[*:1]; X4 = CC(C)CCCCCCCCCCC(CC(=O)[*:2])N[*:1]; X3 = CCC(C)CCCCCCCCC(CC(=O)[*:2])N[*:1]; X5 = CCCCCCCCCCCCC(CC(=O)[*:2])N[*:1]

How the values were obtained:
[1] = tested on: Candida albicans 7N; assay type: cell-based; settings: for MIC: 7N
Protocol: (§1) The microbicidal spectrum of iturin A, which is the active ingredient in the antifungal agent for profound mycosis of the present invention, may be obtained, for example, from the minimum growth inhibiting concentration (MIC) of iturin A to various fungi such as clinically-isolated strains, animal-infected fungi and others to be obtained on the basis of the method as designated by Japan Chemotherapy Association.
(§2) The antifungal activity of iturin A as produced in Example 1 was measured to identify its antifungal activity. Precisely, the minimum growth inhibiting concentration (MIC) of iturin A4 against fungi was measured on the basis of the method as designated by Japan Chemotherapy Association, and the results shown in Table 6 below were obtained.
In addition, MIC of each of iturin A2 to iturin A8 against Candida albicans 7N was measured in the same manner as above, and the results shown in Table 7 below were obtained.
Fungi used: Candida albicans 7N
Medium used: 0.5% Glucose, Yeastnitrogen base (made by DIFCO Co.)

[2] = tested on: A. flavas IAM 2044; assay: minimum growth inhibiting concentration (MIC); assay type: cell-based
Protocol: as §1, §2

[3] = tested on: Aspergillus fumigatus Tsukuba No. 12; assay: minimum growth inhibiting concentration (MIC); assay type: cell-based
Protocol: as §1, §2

[4] = tested on: C. glabrata IFM 40065; assay: minimum growth inhibiting concentration (MIC); assay type: cell-based
Protocol: as §1, §2

[5] = tested on: C. krusei IFM 40019; assay: minimum growth inhibiting concentration (MIC); assay type: cell-based
Protocol: as §1, §2

[6] = tested on: C. tropicalis IFM 40018; assay: minimum growth inhibiting concentration (MIC); assay type: cell-based
Protocol: as §1, §2

[7] = tested on: Candida albicans IFM 40001; assay: minimum growth inhibiting concentration (MIC); assay type: cell-based
Protocol: as §1, §2

[8] = tested on: Candida albicans IFM 40002; assay: minimum growth inhibiting concentration (MIC); assay type: cell-based
Protocol: as §1, §2

[9] = tested on: Cryptococcus neoformans IFM 40038; assay: minimum growth inhibiting concentration (MIC); assay type: cell-based
Protocol: as §1, §2

[10] = tested on: Cryptococcus neoformans IFM 40043; assay: minimum growth inhibiting concentration (MIC); assay type: cell-based
Protocol: as §1, §2

[11] = tested on: Mucor guilliermondii IFO 9403; assay: minimum growth inhibiting concentration (MIC); assay type: cell-based
Protocol: as §1, §2

[12] = Acute Toxicity Test, oral single administration; assay type: in vivo, ddy-N mice; settings: for Mortality (%) / Time-Dependent Mortality: oral 2,000 mg/kg once; for Time-Dependent Mortality: day 1; for LD50 (mg/kg): oral single administration
Protocol: Iturin A4 obtained in Example 1 was dissolved in an injectable distilled water to prepare an aqueous 10% (w/v) solution of iturin A4 to be tested. The test solution was forcedly oral-administered once to five male and five female ddy-N mice, after having been fasted for 13 hours, by the use of a stomach probe. The test ddy-N mice were about 4-week age ones and were obtained from Nippon Medico-Chemical Animal Sources Laboratories Co., Ltd. Prior to the test, all the test mice were preliminarily bred in the laboratory for one week so as to confirm the healthy condition of them. Then, the about 5-week age mice were subjected to the test. The body weight of the test mice just before the test was 28 g (male mice) and from 18 to 22 g (female mice).
To each of the male and female mice, the test solution was administered in an amount of 20 ml per kg of the body weight, whereby 2,000 mg/kg of the test substance was administered to them.

[13] = Acute toxicity, single intravenous injection; assay type: in vivo, ddy-N mice; settings: male mice
Protocol: (§3) In the next test, mice of the same kind as mentioned above were used. Iturin A4 was dissolved in DMSO(dimethylsulfoxide)-castor oil-5% Glc solution, and the resulting solution was injected to the caudal vein of each of the five male mice once or plural times. For the single injection, the solution was administered to the mice each in an amount of 200 mg per kg of the body weight; and for the plural injections, it was administered to them 14 times each in an amount of 30 mg/kg/day. After the injection(s), the time-dependent mortality of the test mice was observed and the results shown in Tables 10 and 11 below were obtained.

[14] = Acute toxicity, plural intravenous injections; assay type: in vivo, ddy-N mice; settings: male mice, intravenous 30 mg/kg/day × 14 times
Protocol: as §3

[15] = oral 2,000 mg/kg, male and female mice

CCCCCCCCCCCCCC1CC(=O)N[C@@H](CC(N)=O)C(=O)N[C@H](Cc2ccc(O)cc2)C(=O)N[C@H](CC(N)=O)C(=O)N[C@@H](CCC(N)=O)C(=O)N2CCC[C@H]2C(=O)N[C@H](CC(N)=O)C(=O)N[C@@H](CO)C(=O)N1 (stereo partly drawn) [Iturin A7, iturin A7] (cyclo(N[dY][dN]QP[dN]S[ξβ3hGly(tridecyl)]))
MIC [1]: 6.25 µg/mL (≈ 5.83 µM)

CCCCCCCCCCCCC1CC(=O)N[C@@H](CC(N)=O)C(=O)N[C@H](Cc2ccc(O)cc2)C(=O)N[C@H](CC(N)=O)C(=O)N[C@@H](CCC(N)=O)C(=O)N2CCC[C@H]2C(=O)N[C@H](CC(N)=O)C(=O)N[C@@H](CO)C(=O)N1 (stereo partly shown) [Iturin A5, iturin A5] (cyclo(N[dY][dN]QP[dN]S[X5]))
MIC [1]: 25 µg/mL (≈ 23.6 µM)

CCC(C)CCCCCCCCC1CC(=O)N[C@@H](CC(N)=O)C(=O)N[C@H](Cc2ccc(O)cc2)C(=O)N[C@H](CC(N)=O)C(=O)N[C@@H](CCC(N)=O)C(=O)N2CCC[C@H]2C(=O)N[C@H](CC(N)=O)C(=O)N[C@@H](CO)C(=O)N1 (stereo partly shown) [Iturin A3, iturin A3] (cyclo(N[dY][dN]QP[dN]S[X3]))
MIC [1]: 50 µg/mL (≈ 47.3 µM)

CC(C)CCCCCCCCC[C@@H]1CC(=O)N[C@@H](CC(N)=O)C(=O)N[C@H](Cc2ccc(O)cc2)C(=O)N[C@H](CC(N)=O)C(=O)N[C@@H](CCC(N)=O)C(=O)N2CCC[C@H]2C(=O)N[C@H](CC(N)=O)C(=O)N[C@@H](CO)C(=O)N1 [Iturin A4, iturin A4] (cyclo(N[dY][dN]QP[dN]S[X2]))
MIC (μg/ml) of Iturin A4 [2]: 2.4 µg/mL | MIC (μg/ml) of Iturin A4 [3]: 6.25 µg/mL | MIC (μg/ml) of Iturin A4 [4]: 6.25 µg/mL | MIC (μg/ml) of Iturin A4 [5]: 25 µg/mL | MIC (μg/ml) of Iturin A4 [6]: 6.25 µg/mL | MIC (μg/ml) of Iturin A4 [7]: < 0.05 µg/mL | MIC (μg/ml) of Iturin A4 [8]: 1.56 µg/mL | MIC (μg/ml) of Iturin A4 [9]: 3.13 µg/mL | MIC (μg/ml) of Iturin A4 [10]: 0.78 µg/mL | MIC (μg/ml) of Iturin A4 [11]: 1.2 µg/mL | MIC (μg/ml) of Iturin A4 ([1]; Candida albicans 7N (Table 6)): 25 µg/mL | Mortality (%) ([12]; female mice): 0% | Time-Dependent Mortality ([12]; female mice): 0/5 | LD50 (mg/kg) ([12]; female mice): > 2,000 mg/kg | Mortality (%) ([12]; male mice): 0% | Time-Dependent Mortality ([12]; male mice): 0/5 | LD50 (mg/kg) ([12]; male mice): > 2,000 mg/kg | time until vitality came back to normal after the administration [12, 15]: 2 h | vitality of the test mice just after the administration [12, 15]: lowered slightly | LD50 ([13]; single intravenous injection): > 200 mg/kg | Mortality (%) ([13]; single intravenous injection 200 mg/kg): 0% | Time-Dependent Mortality ([13]; single intravenous injection 200 mg/kg, day 1): 0/5 | Mortality (%) [14]: 0% | Time-Dependent Mortality ([14]; 14 days): 0/5 | Time-Dependent Mortality ([14]; day 1): 0/5

CCCCCCCCCCCC1CC(=O)N[C@@H](CC(N)=O)C(=O)N[C@H](Cc2ccc(O)cc2)C(=O)N[C@H](CC(N)=O)C(=O)N[C@@H](CCC(N)=O)C(=O)N2CCC[C@H]2C(=O)N[C@H](CC(N)=O)C(=O)N[C@@H](CO)C(=O)N1 (stereo partly drawn) [Iturin A2, iturin A2] (cyclo(N[dY][dN]QP[dN]S[ξβ3hGly(undecyl)]))
MIC [1]: 50 µg/mL (≈ 47.9 µM)

CC(C)CCCCCCCCCCC1CC(=O)N[C@@H](CC(N)=O)C(=O)N[C@H](Cc2ccc(O)cc2)C(=O)N[C@H](CC(N)=O)C(=O)N[C@@H](CCC(N)=O)C(=O)N2CCC[C@H]2C(=O)N[C@H](CC(N)=O)C(=O)N[C@@H](CO)C(=O)N1 (stereo partly shown) [Iturin A6, iturin A6] (cyclo(N[dY][dN]QP[dN]S[X4]))
MIC [1]: 12.5 µg/mL (≈ 11.7 µM)

CCC(C)CCCCCCCCCCC1CC(=O)N[C@@H](CC(N)=O)C(=O)N[C@H](Cc2ccc(O)cc2)C(=O)N[C@H](CC(N)=O)C(=O)N[C@@H](CCC(N)=O)C(=O)N2CCC[C@H]2C(=O)N[C@H](CC(N)=O)C(=O)N[C@@H](CO)C(=O)N1 (stereo partly shown) [Iturin A8, iturin A8] (cyclo(N[dY][dN]QP[dN]S[X6]))
MIC [1]: 12.5 µg/mL (≈ 11.5 µM)
